Laboratory results published in US9415087B2, “Compositions and methods for treating coronavirus infection” (LUDWIG-MAXIMILIANS-UNIVERSITAET MUENCHEN, priority 2014, dated 2016).
“Also recorded” adds a separate entry of the source. Where two headings read alike, the source gives them in different places.

How the values were obtained:
NFAT = NFAT reporter gene assay (luciferase) in Jurkat cells; assay type: cell-based; details: luciferase-coupled NFAT reporter gene assay; for IC50: read-out: In vitro inhibition NFAT reporter gene assay IC50
CnA = CnA (Homo sapiens, UniProt P62937+P63098+Q08209); assay type: biochemical; details: for IC50: read-out: In vitro inhibition CnA IC50
Chain of CnA (P62937 whole entry, other chains not shown): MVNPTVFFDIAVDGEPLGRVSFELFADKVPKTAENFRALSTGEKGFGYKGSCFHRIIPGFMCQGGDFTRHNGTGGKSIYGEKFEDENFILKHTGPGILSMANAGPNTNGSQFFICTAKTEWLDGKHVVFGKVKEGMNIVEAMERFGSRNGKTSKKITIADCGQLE
Chain of CnA (P63098 2-170, other chains not shown): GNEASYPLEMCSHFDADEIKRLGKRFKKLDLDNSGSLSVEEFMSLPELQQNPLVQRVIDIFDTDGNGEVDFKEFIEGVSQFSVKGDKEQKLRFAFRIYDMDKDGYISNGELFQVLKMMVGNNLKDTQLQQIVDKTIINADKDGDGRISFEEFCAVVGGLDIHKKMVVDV

NFAT-GFP = NFAT-GFP nuclear translocation assay; details: 40 nM compound, ionomycin 2 μM; yes = non-immunosuppressive
human CypA = human CypA (Homo sapiens, UniProt P62937); assay type: biochemical; details: protease-coupled PPIase assay; read-out: In vitro inhibition human CypA IC50
Chain of human CypA (P62937 whole entry): as the sequence (P62937 whole entry, other chains not shown) above

HCoV-NL63 = assay: microbe, parasite or virus in culture; assay type: cell-based; details: read-out: Inhibition of HCoV-NL63 in CaCo-2 EC50
[1] = system: Mouse Hepatitis Virus (MHV-LUC); assay: MHV-LUC replication in L929 cells, luciferase activity; details: micromolar concentration, FIG. 12
HCoV-NL63 N protein = assay: Western blot of N protein expression in HCoV-NL63-infected CaCo2 cells; assay type: cell-based; details: 48 hours, 0 to 20 μM
SARS-CoV-Replicon RNA = assay type: cell-based; details: BHK-21 cells, 20 hours, FIG. 11
HCoV-229E-LUC = assay: microbe, parasite or virus in culture; assay type: cell-based; details: for inhibition of 229E-LUC replication (in words): Huh-7.5 cells
HCoV-229E N protein = assay type: cell-based; details: 48 h
[2] = system: Feline Coronavirus (FCoV-LUC); assay: FCoV-LUC replication in Felis catus whole fetus (fcwf) cells, Renilla luciferase; assay type: cell-based; details: micromolar concentration, FIG. 10
lymphocyte proliferation = details: Sadeg et al. 1993; cited from earlier work
[3] = Human coronavirus 229E, Huh7.5, 18 h, read-out: EC50 HCoV-229E-LUC, 18 hrs p.I., Huh-7.5, MOI=0.1
[4] = Human coronavirus 229E, Huh7.5, 48 h, read-out: EC50 HCoV-229E-LUC, 48 hrs p.I., Huh-7.5, MOI=0.1
[5] = Human coronavirus NL63, Caco-2, 48 h

SMILES	NFAT-GFP translocation in HEK-293 cells (to the nucleus) (NFAT-GFP)	IC50 (human CypA)	EC50 (HCoV-NL63)	concentration at which HCoV-NL63 N-protein decreases (HCoV-NL63 N protein)	inhibition of 229E-LUC replication (in words) (HCoV-229E-LUC)	EC50 (HCoV-229E-LUC; [3])	EC50 (HCoV-229E-LUC; [4])	EC50 (HCoV-NL63; [5])	other results
CCOP(=O)(CC=CCC(C)C(O)C1C(=O)NC(CC)C(=O)N(C)CC(=O)N(C)C(CC(C)C)C(=O)NC(C(C)C)C(=O)N(C)C(CC(C)C)C(=O)NC(C)C(=O)NC(C)C(=O)N(C)C(CC(C)C)C(=O)N(C)C(CC(C)C)C(=O)N(C)C(C(C)C)C(=O)N1C)OCC (mixture of isomers) [Compound 1]	yes	9.1 nM	1600 nM	–	–	–	–	–	In vitro inhibition NFAT reporter gene assay IC50 (NFAT): no; In vitro inhibition CnA IC50 (CnA; binary PPIase/drug complexes): could not be inhibited at all and no
C/C=C/C[C@@H](C)[C@@H](O)[C@H]1C(=O)N[C@@H](CC)C(=O)N(C)[C@H](C)C(=O)N(CC)[C@@H](C(C)C)C(=O)N[C@@H](C(C)C)C(=O)N(C)[C@@H](CC(C)C)C(=O)N[C@@H](C)C(=O)N[C@H](C)C(=O)N(C)[C@@H](CC(C)C)C(=O)N(C)[C@@H](CC(C)C)C(=O)N(C)[C@@H](C(C)C)C(=O)N1C [ALV, Alisporivir]	yes	–	–	1.25 µM	low micromolar range	2770 nM	1370 nM	800 nM	inhibition of murine Coronavirus spread (in words) [1]: inhibits spread; inhibition of SARS-CoV-RNA replicon propagation (in words) (SARS-CoV-Replicon RNA): inhibition; concentration at which HCoV-229E N protein is not detectable anymore (HCoV-229E N protein; Western blot): 1.25 µM; inhibition of feline Coronavirus spread (in words) [2]: inhibits spread
CCC1NC(=O)C(C(O)C(C)CC=CCN(C)C)N(C)C(=O)C(C(C)C)N(C)C(=O)C(CC(C)C)N(C)C(=O)C(CC(C)C)N(C)C(=O)C(C)NC(=O)C(C)NC(=O)C(CC(C)C)N(C)C(=O)C(C(C)C)NC(=O)C(CC(C)C)N(C)C(=O)CN(C)C1=O (centres unmarked) [Compound 2]	yes	–	7900 nM	–	–	–	–	–	–
CCC1NC(=O)C(C(O)C(C)Cc2nc3ccc(C(=O)OC)cc3[nH]2)N(C)C(=O)C(C(C)C)N(C)C(=O)C(CC(C)C)N(C)C(=O)C(CC(C)C)N(C)C(=O)C(C)NC(=O)C(C)NC(=O)C(CC(C)C)N(C)C(=O)C(C(C)C)NC(=O)C(CC(C)C)N(C)C(=O)CN(C)C1=O (centres unmarked) [Compound 3]	yes	11.9 nM	1100 nM	1.25 µM	low micromolar range	–	–	–	IC50 (CnA): 6900 nM; EC50 (HCoV-229E-LUC; 18 hrs p.I., Huh-7.5, MOI=0.1, read-out: EC50 HCoV-229E-LUC): 2050 nM; EC50 (HCoV-229E-LUC; 48 hrs p.I., Huh-7.5, MOI=0.1, listed as Comp. 3, read-out: EC50 HCoV-229E-LUC): 920 nM; EC50 (HCoV-229E-LUC; 48 hrs p.I., Huh-7.5, MOI=0.1, read-out: EC50 HCoV-229E-LUC): 970 nM
CCC1NC(=O)C(C(O)C(C)Cc2nc3ccc(C(=O)c4ccccc4)cc3[nH]2)N(C)C(=O)C(C(C)C)N(C)C(=O)C(CC(C)C)N(C)C(=O)C(CC(C)C)N(C)C(=O)C(C)NC(=O)C(C)NC(=O)C(CC(C)C)N(C)C(=O)C(C(C)C)NC(=O)C(CC(C)C)N(C)C(=O)CN(C)C1=O (centres unmarked) [Compound 4]	yes	14.1 nM	8100 nM	–	–	–	–	–	IC50 (NFAT): 1300 nM; IC50 (CnA; binary PPIase/drug complexes): ~10000 nM
CCC1NC(=O)C(C(O)C(C)Cc2nc3ccc(-c4nc5ccccc5s4)cc3[nH]2)N(C)C(=O)C(C(C)C)N(C)C(=O)C(CC(C)C)N(C)C(=O)C(CC(C)C)N(C)C(=O)C(C)NC(=O)C(C)NC(=O)C(CC(C)C)N(C)C(=O)C(C(C)C)NC(=O)C(CC(C)C)N(C)C(=O)CN(C)C1=O (centres unmarked) [Compound 5]	yes	16.6 nM	2300 nM	–	–	–	–	–	IC50 (NFAT): 1200 nM; IC50 (CnA; binary PPIase/drug complexes): > 10000 nM
C/C=C/C[C@@H](C)[C@@H](O)[C@H]1C(=O)N[C@@H](C(C)C)C(=O)N(C)CC(=O)N(C)[C@@H](CC(C)C)C(=O)N[C@@H](C(C)C)C(=O)N(C)[C@@H](CC(C)C)C(=O)N[C@@H](C)C(=O)N[C@H](C)C(=O)N(C)[C@@H](CC(C)C)C(=O)N(C)[C@@H](CC(C)C)C(=O)N(C)[C@@H](C(C)C)C(=O)N1C [CsD]	remained in the cytoplasm and no	–	2500 nM	–	–	–	–	–	immunosuppressant activity in lymphocyte proliferation assays relative to CsA (lymphocyte proliferation): about 10 % of the CsA activity
C/C=C/C[C@@H](C)[C@@H](O)[C@H]1C(=O)N[C@@H](CC)C(=O)N(C)CC(=O)N(C)[C@@H](CC(C)C)C(=O)N[C@@H](C(C)C)C(=O)N(C)[C@@H](CC(C)C)C(=O)N[C@@H](C)C(=O)N[C@H](C)C(=O)N(C)[C@@H](CC(C)C)C(=O)N(C)[C@@H](CC(C)C)C(=O)N(C)[C@H](C(C)C)C(=O)N1C [CsH, Cyclosporin H]	–	–	–	–	slight residual inhibitory activity; also recorded: do not inhibit	–	–	–	HCoV-229E N protein synthesis (in words) (HCoV-229E N protein; at 20 μM): allow significant N protein synthesis
C=CC[C@@H]1/C=C(\C)C[C@H](C)C[C@H](OC)[C@H]2O[C@@](O)(C(=O)C(=O)N3CCCC[C@H]3C(=O)O[C@H](/C(C)=C/[C@@H]3CC[C@@H](O)[C@H](OC)C3)[C@H](C)[C@@H](O)CC1=O)[C@H](C)C[C@@H]2OC [FK506]	–	–	–	–	–	2960 nM	860 nM	6600 nM	–
C/C=C/C[C@@H](C)[C@@H](O)[C@H]1C(=O)N[C@@H](CC)C(=O)N(C)CC(=O)N(C)[C@@H]([C@@H](C)CC)C(=O)N[C@@H](C(C)C)C(=O)N(C)[C@@H](CC(C)C)C(=O)N[C@@H](C)C(=O)N[C@H](C)C(=O)N(C)[C@@H](CC(C)C)C(=O)N(C)[C@@H](CC(C)C)C(=O)N(C)[C@@H](C(C)C)C(=O)N1C [NIM811]	yes	–	–	1.25 µM	low micromolar range	3110 nM	1190 nM	800 nM	inhibition of murine Coronavirus spread (in words) [1]: inhibits spread; inhibition of SARS-CoV-RNA replicon propagation (in words) (SARS-CoV-Replicon RNA): inhibition; inhibition of feline Coronavirus spread (in words) [2]: inhibits spread
